According to patent publication US11135211B2, “Pimavanserin for treating impulse control disorder” (ACADIA Pharmaceuticals Inc., priority 2017, dated 2021):

Key:
PD patients = details: cited from earlier work
6-OHDA lesioned rats = assay: Forelimb step task (forelimb akinesia) in 6-OHDA lesioned rats; assay type: in vivo; details: co-administration with pramipexole
Method: Male Sprague-Dawley (outbred) rats (250-300 g; Harlan Laboratories, Indianapolis, Ind.) are to be pair-housed under environmentally controlled conditions under a 12 h light/dark cycle (lights on at 07:00); food and water are to be available ad libitum.
6-OHDA lesions will be carried out at described previously (Napier et al., Pramipexole-induced increased probabilistic discounting: comparison between a rodent model of Parkinson's disease and controls. Neuropsychopharmacology 37, 1397-1408, 2012). Prior to inducing lesions, desipramine (obtained from Sigma-Aldrich), a norepinephrine reuptake inhibitor, will be administered (25 mg/kg subcutaneously (sc)) to enhance selectivity of 6OHDA for dopamine neurons. Rats were anesthetized with isoflurane and secured in a stereotaxic frame. […]
Rats then will be trained for ICSS followed by probability discounting. […] Pramipexole will be infused for 14 days (optionally a similar time period may be used), during which probability discounting will be assessed each day. Forelimb akinesia will be evaluated before lesion, after lesion, and at various time points during pramipexole administration. […] Probability discounting will be assessed each day of chronic drug treatment; forelimb akinesia will be evaluated before lesion, after lesion, and at various time points during chronic drug administration.

[1] = system: lean, female, Wistar rats; assay: Binge-eating on chocolate in rats (BED model); assay type: in vivo
Excerpt: Carbohydrate and fat ‘comfort foods’, with bingeing on chocolate are known to be associated with eating disorders in humans and in rodents.
BED is, for example, to be studied using lean, female, Wistar rats (weight range 200-250 g at the start of the study) from Charles River, UK. Rats are to be contained in a controlled environment and housed in an appropriate way to perform the study, for example singly-housed in polypropylene cages with wire grid floors to enable food intake of each rat to be recorded. […]
Body weight, food and water intake are to be measured each day throughout the study, for example as described in the following: Animals are to be weighed at weekly intervals after arrival. […] The weights of the jars are to be recorded before and after the 2 h test session. […] The body weight of each rat and its food and water intake are to be measured on every morning of the study; readings are to be taken in the final stage of the light phase at ˜09:45 h. […]
During the training period, an extra food jar (along with the jar containing normal chow) containing chocolate are to be added to the cage for 2 hr/day intermittently, for at least three weeks, using the access schedule above. […] The chocolate and chow consumed during this 2 h period are to be measured. […]

[2] = system: rats with 6-hydroxydopamine (6OHDA)-induced lesions of the dorsolateral striatum (DLS); assay: ICSS-mediated probability discounting (risk-taking) in rat model of PD; assay type: in vivo; details: co-administration with pramipexole
Excerpt: Impulsiveness includes a greater tendency for risk-taking. This tendency can be quantified using probability discounting procedures; a cross-species assessment in which the subject chooses between a small reinforcer (SR) delivered at a high probability, and a large reinforcer (LR) delivered at a low probability. Typically, the subjective value of the LR is discounted when its probability is low, and individuals then select the smaller, yet more certain reinforcer. Those who suffer from ICD are less sensitive to low probabilities than healthy individuals, and they more frequently select the LR even when the odds to obtain the reward are very low (Hendrickson, et al., Effects of mindful eating training on delay and probability discounting for food and money in obese and healthy-weight individuals. Behav. Res. Ther. 51, 399-409, 2013). […]
Rats then will be trained for ICSS followed by probability discounting. […] Pramipexole will be infused for 14 days (optionally a similar time period may be used), during which probability discounting will be assessed each day. Forelimb akinesia will be evaluated before lesion, after lesion, and at various time points during pramipexole administration. […]

## CC(C)COc1ccc(CNC(=O)N(Cc2ccc(F)cc2)C2CCN(C)CC2)cc1 [pimavanserin, N-(1-methylpiperidin-4-yl)-N-(4-fluorophenylmethyl)-N′-(4-(2-methylpropyloxy)phenylmethyl)carbamide]
PD patients
  hallucinations and delusions associated with PD: control hallucinations and delusions
  motor function in PD patients: without impacting motor function
6-OHDA lesioned rats
  motor function in rats receiving pramipexole: did not alter motor function
[1]; compared to vehicle treated control
  consumption of standard laboratory diet during the 2 h binge-eating session: no effect
[1]; pimavanserin 0.1, 0.5, 1.0, 3.0, 6.0, 10.0 mg/kg po 60 min prior to session
  consumption of palatable food (chocolate) in 2 h binge-eating session: decrease the consumption
[2]
  risk taking behavior in rats receiving pramipexole (proportion of rats selecting LR): reduced risk taking behavior
